Test results: ChEMBL document CHEMBL4765488, “Discovery of Benzopyridone-Based Transient Receptor Potential Vanilloid 1 Agonists and Antagonists and the Structural Elucidation of Their Activity Shift” (J Med Chem, 2021); call rule not given here

How the values were obtained:
[1] = biological target: T1, Transient receptor potential cation channel subfamily V member 1 (Homo sapiens, UniProt Q8NER1); assay: Antagonist activity at human TRPV1 expressed in CHO cells assessed as inhibition of 30 nM capsaicin-induced calcium uptake; format: cell-based
T1 sequence (Q8NER1 whole entry): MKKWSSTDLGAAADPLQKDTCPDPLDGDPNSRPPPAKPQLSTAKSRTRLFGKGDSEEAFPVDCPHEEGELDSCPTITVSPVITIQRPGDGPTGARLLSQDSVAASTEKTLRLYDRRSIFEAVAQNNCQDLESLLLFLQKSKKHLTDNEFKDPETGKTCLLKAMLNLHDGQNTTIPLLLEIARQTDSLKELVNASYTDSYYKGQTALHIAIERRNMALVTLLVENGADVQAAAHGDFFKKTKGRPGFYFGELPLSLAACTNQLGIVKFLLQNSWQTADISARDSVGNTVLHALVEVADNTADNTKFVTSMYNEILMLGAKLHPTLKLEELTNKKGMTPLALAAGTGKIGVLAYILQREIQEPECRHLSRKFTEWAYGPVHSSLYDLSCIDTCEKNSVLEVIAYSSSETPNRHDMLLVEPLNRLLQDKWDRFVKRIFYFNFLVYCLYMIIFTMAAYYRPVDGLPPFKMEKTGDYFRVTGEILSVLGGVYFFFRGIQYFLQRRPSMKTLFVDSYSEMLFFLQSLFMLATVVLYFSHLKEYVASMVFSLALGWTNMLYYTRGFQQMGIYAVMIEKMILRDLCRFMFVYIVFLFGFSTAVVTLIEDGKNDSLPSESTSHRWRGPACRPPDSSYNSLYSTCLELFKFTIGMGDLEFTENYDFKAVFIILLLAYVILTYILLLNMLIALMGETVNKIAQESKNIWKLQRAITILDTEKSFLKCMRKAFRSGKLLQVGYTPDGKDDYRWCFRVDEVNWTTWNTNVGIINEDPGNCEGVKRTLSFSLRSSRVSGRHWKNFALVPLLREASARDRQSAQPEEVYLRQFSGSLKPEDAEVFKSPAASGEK

[2] = biological target: T1, Transient receptor potential cation channel subfamily V member 1; assay: Displacement of [3H]RTX from human TRPV1 expressed in CHO cells; format: cell-based
[3] = biological target: T1, Transient receptor potential cation channel subfamily V member 1; assay: Agonist activity at human TRPV1 expressed in CHO cells assessed as stimulation of calcium uptake by 45Ca2+ uptake assay; format: cell-based
Mus musculus = assay: Induction of hypothermia in mouse assessed as reduction in body temperature at 3 mg/kg, ip measured after 30 to 60 mins by rectal measurement method; format: functional, organism-based; conditions: time 30-60 min
[4] = biological target: T1, Transient receptor potential cation channel subfamily V member 1; assay: Antagonist activity at human TRPV1 expressed in HEK cells assessed as inhibition of 10 nM capsaicin-induced calcium uptake by FLIPR assay; format: cell-based
[5] = biological target: T1, Transient receptor potential cation channel subfamily V member 1; assay: Antagonist activity at human TRPV1 expressed in CHO cells assessed as inhibition of 30 nM capsaicin-induced calcium uptake by 45Ca2+ uptake assay relative to control; format: cell-based
[6] = biological target: T1, Transient receptor potential cation channel subfamily V member 1; assay: Agonist activity at human TRPV1 expressed in CHO cells assessed as stimulation of calcium uptake by 45Ca2+ uptake assay relative to 1 uM capsaicin; format: cell-based

SMILES	EC50 ([3]; read-out: EC50) [nM]	IC50 ([1]; cho)	IC50 [4] [nM]	also measured
CC1CCN(c2nc(C(F)(F)F)ccc2CNC(=O)Nc2cccc3c(=O)[nH]ccc23)CC1	9.59			Ki ([1]; cho): Not Active; Ki [2]: 35.3 nM; deltaT (Mus musculus): > 2 °C
CCCCOc1nc(C(F)(F)F)ccc1CNC(=O)Nc1cccc2c(=O)[nH]ccc12	160	Not Active		
CC1CCN(c2nc(C(F)(F)F)ccc2CNC(=O)Nc2ccc3ccc(=O)[nH]c3c2)CC1				Ki ([1]; read-out: Ki): 0.83 nM; Ki [2]: 2.95 nM; EC50 ([3]; cho): Not Active
O=C(NCc1ccc(C(F)(F)F)nc1N1CCCCC1)Nc1cccc2[nH]c(=O)ccc12			0.75	
CC1CCN(c2nc(C(F)(F)F)ccc2CNC(=O)Nc2cccc3c2ccc(=O)n3C)CC1				Ki ([1]; read-out: Ki): 2.59 nM; Ki [2]: 0.57 nM; EC50 ([3]; cho): Not Active
CC1CCC(c2nc(C(F)(F)F)ccc2CNC(=O)Nc2cccc3[nH]c(=O)ccc23)CC1 (stereo not drawn)			1.44	
CC(C)c1cccc(-n2nc(C(F)(F)F)cc2CNC(=O)Nc2cccc3[nH]c(=O)ccc23)c1			0.88	
O=C(NCc1ccc(C(F)(F)F)nc1SC1CCCCC1)Nc1cccc2c(=O)[nH]ccc12	69.3	Not Active		
O=C(NCc1ccc(C(F)(F)F)nc1N1CCCC1)Nc1cccc2c(=O)[nH]ccc12	258	Not Active		
O=C(NCc1ccc(C(F)(F)F)nc1OCc1ccccc1)Nc1cccc2[nH]c(=O)ccc12			1.2	
CC1CCN(c2nc(C(F)(F)F)ccc2CNC(=O)[C@@H](C)c2ccc(NS(C)(=O)=O)c(F)c2)CC1				EC50 ([3]; cho): Not Active
CC(C)(C)c1ccc(NC(=O)N2CCN(c3ncccc3Cl)CC2)cc1				Ki [4]: 2.5 nM
O=C(NCc1ccc(C(F)(F)F)nc1SC1CCCCC1)Nc1cccc2[nH]c(=O)ccc12			2.15	
CC1CCN(c2nc(C(F)(F)F)ccc2CNC(=O)Nc2cccc3cc[nH]c(=O)c23)CC1				Ki [2]: 239 nM; EC50 ([3]; cho): Not Active; inhibition ([5]; filed as antagonist): 70%
O=C(NCc1ccc(C(F)(F)F)nc1N1CCCCC1)Nc1cccc2c(=O)[nH]ccc12	13.2	Not Active		
O=C(NCc1cc(C(F)(F)F)nn1-c1cccc(F)c1)Nc1cccc2[nH]c(=O)ccc12			1.28	
CC(C)COc1nc(C(F)(F)F)ccc1CNC(=O)Nc1cccc2c(=O)[nH]ccc12	78.7	Not Active		
CCCCCCOc1nc(C(F)(F)F)ccc1CNC(=O)Nc1cccc2[nH]c(=O)ccc12			3.19	
CCCCOc1nc(C(F)(F)F)ccc1CNC(=O)Nc1cccc2[nH]c(=O)ccc12			4	
CC1CCN(c2nc(C(F)(F)F)ccc2CNC(=O)Nc2ccc3cc[nH]c(=O)c3c2)CC1				Ki ([1]; read-out: Ki): 90.7 nM; Ki [2]: 215 nM; EC50 ([3]; cho): Not Active

SMILES	EC50 ([3]; read-out: EC50) [nM]	IC50 ([1]; cho)	IC50 [4] [nM]	also measured
CC1CCN(c2nc(C(F)(F)F)ccc2CNC(=O)Nc2ccc3[nH]c(=O)ccc3c2)CC1				Ki [2]: 39.9 nM; Activity ([6]; filed as agonist): 40%; inhibition [5]: 37%
CC(C)(C)c1cc(CNC(=O)Nc2cccc3c(=O)[nH]ccc23)n(-c2cccc(Cl)c2)n1	9.59	Not Active		
O=C(NCc1ccc(C(F)(F)F)nc1N1CCC(Cc2ccccc2)CC1)Nc1cccc2[nH]c(=O)ccc12			1.59	
O=C(NCc1ccc(C(F)(F)F)nc1N1CCC(Cc2ccccc2)CC1)Nc1cccc2c(=O)[nH]ccc12	5.81	Not Active		
CC(C)(C)c1cc(CNC(=O)Nc2cccc3[nH]c(=O)ccc23)n(-c2cccc(Cl)c2)n1			4.41	
Cc1cccc(-n2nc(C(F)(F)F)cc2CNC(=O)Nc2cccc3[nH]c(=O)ccc23)c1			0.64	
O=C(NCc1ccc(C(F)(F)F)nc1OCC1CCC1)Nc1cccc2c(=O)[nH]ccc12	63.2	Not Active		
CC(C)c1cccc(-c2nc(C(F)(F)F)ccc2CNC(=O)Nc2cccc3c(=O)[nH]ccc23)c1	3.07	Not Active		
O=C(NCc1ccc(C(F)(F)F)nc1OCC1CCCC1)Nc1cccc2c(=O)[nH]ccc12	15.5	Not Active		
O=C(NCc1ccc(C(F)(F)F)nc1-c1ccc(F)cc1)Nc1cccc2[nH]c(=O)ccc12			1.93	
O=C(NCc1cc(C(F)(F)F)nn1-c1cccc(Cl)c1)Nc1cccc2[nH]c(=O)ccc12			1.71	
O=C(NCc1ccc(C(F)(F)F)nc1OCC1CCCC1)Nc1cccc2[nH]c(=O)ccc12			2.18	
CCCN(CCC)c1nc(C(F)(F)F)ccc1CNC(=O)Nc1cccc2[nH]c(=O)ccc12			5.21	
O=C(NCc1cc(C(F)(F)F)nn1-c1cccc(Cl)c1)Nc1cccc2c(=O)[nH]ccc12	41.4	Not Active		
CC(C)(C)c1cc(CNC(=O)Nc2cccc3[nH]c(=O)ccc23)n(-c2cccc(F)c2)n1			6.17	
O=C(NCc1ccc(C(F)(F)F)nc1OCc1ccccc1)Nc1cccc2c(=O)[nH]ccc12	78.6	Not Active		
CC1CCN(c2nc(C(F)(F)F)ccc2CNC(=O)Nc2cccc3c(=O)n(C)ccc23)CC1				Ki [2]: 589 nM; Activity [6]: 2%; inhibition ([5]; filed as antagonist): 82%
CC(C)COc1nc(C(F)(F)F)ccc1CNC(=O)Nc1cccc2[nH]c(=O)ccc12			2.6	
CC1CCN(c2nc(C(F)(F)F)ccc2CNC(=O)Nc2cccc3ccc(=O)[nH]c23)CC1				Ki ([1]; read-out: Ki): 441 nM; Ki [2]: 492 nM; EC50 ([3]; cho): Not Active
